Test results published in patent US8658226B2, “Agent having anti-Helicobacter pylori activity” (Japan Royal Jelly Co., Ltd., priority 2008, dated 2014).
≈ marks a conversion by molar mass, not a printed value.

Test system: Helicobacter pylori
Assay: Measurement of anti-Helicobacter pylori activity by the paper disk method
Assay type: cell-based
Experimental: Measurement of anti-Helicobacter pylori activity was carried out by the paper disk method using Helicobacter pylori agar culture medium (Pore […] Chemical). After coating Helicobacter pylori over the entire surface of this medium, a thick circular piece of filter paper (Advantec) having a diameter of 8 mm impermeated with 60 μl of extract was placed on the medium followed by culturing in the presence of 10% carbon dioxide gas. After culturing for 3 to 4 days, the size of the zone of inhibition of Helicobacter pylori growth formed around the filter paper was observed. A piece of filter paper impermeated with chloramphenicol (CM, 100 μg/ml) was also placed on the medium as a positive control, while a piece of filter paper impermeated with PBS was placed on the medium as a negative control.

Question: How did the MIC (Helicobacter pylori, assumed from paper disk method, read-out: minimum inhibitory concentration (MIC)) turn out when O=C(N[C@H](CO)[C@H](O)c1ccc([N+](=O)[O-])cc1)C(Cl)Cl [chloramphenicol] was run?
Answer: Its MIC is about 5 µg/mL (≈ 15.5 µM).

Question: And the “antibacterial activity of chloramphenicol” value (at a concentration of 5 μg/ml)?
Answer: Its value is “essentially no longer observed”.
